The values that follow come from patent US3959468A, “Antibiotic equisetin and method of production” (The United States of America as represented by the …, priority 1974, dated 1976).

The solubility is the dissolved amount per volume that the medium holds. One may read the LD50 as the dose at which mortality reaches 50%.

The test system of data set [1] is some gram-positive bacteria and N. perflava. The data set can be described thus: Comparison of MIC of equisetin with streptomycin and isoniazid. The class given is cell-based. To be noted: in vitro, tested bacteria. How it is done: (§1) Minimum inhibitory concentrations for microorganisms. The F. equiseti NRRL 5537 antibiotic was diluted in ethanol. Streptomycin sulfate and isoniazid were diluted in water. Amounts up to 1 ml. were added to TGY agar to provide the desired double dilution test concentrations. Minimum inhibitory concentrations of the antimicrobial agents were determined by streaking a loopful of standardized suspensions of 24- to 48-hr. cultures of selected microorganisms onto the surface of 20 ml. of the modified TGY agar in a standard petri dish. Microorganisms were cultured on TGY agar slants and diluted with TGY broth to yield a transmittance of about 90% at 600 nm. in a Spectronic-20 spectrophotometer. All cultures grew on control plates containing 1 ml. ethanol per 100 ml. TGY agar. Bacteria were incubated at 37° C. and the fungi at room temperature.

In data set [2] the test system is Mycobacterium phlei. Kind of data set: Minimum inhibitory concentration, agar streak test on TGY agar (M. phlei). The class given is cell-based. Conditions: Mycolicibacterium phlei. The procedure:
as §1

Data set [3] concerns Bacillus subtilis. Kind of data set: Minimum inhibitory concentration, agar streak test on TGY agar (B. subtilis). It counts as cell-based. The procedure: as §1
In data set [4] the test system is Staphylococcus aureus. The data set can be described thus: Minimum inhibitory concentration, agar streak test on TGY agar (S. aureus). It counts as cell-based. How it is done:
as §1

Data set [5] has as its system gram-negative bacteria. The data set can be described thus: Minimum inhibitory concentration, agar streak test on TGY agar (other gram-negative bacteria). The class given is cell-based. Conditions: Neisseria perflava; tested gram-negative bacteria other than N. perflava; read-out: no inhibition at levels up to. The procedure:
as §1

The format of data set [6] is physicochemical. Conditions: for degradation peak, share of the sample: short columns (2 ft.). The procedure: Gas-liquid chromatography of F. equiseti NRRL 5537 preparations was carried out on a Bendix Model 2500 chromatograph equipped with on-column flame ionization detectors. Retention times of the antibiotic and its degradation product were determined on glass columns (2 ft. × 2 mm. and 6 ft. × 2 mm.) packed with SE-30 (3%) on Supelcon AW-DMCS (Supelco, Inc.). Operating parameters were: temperature, 180° or 190° C. isothermally for 2-ft. columns and programmed from 180° to 220° C. at 5° C./min. for 6-ft. columns; carrier gas, nitrogen (40 ml./min.); hydrogen (20 ml./min.); air (400 ml./min.); injection ports and detectors, 250° C. Samples were dissolved in absolute ethanol (10 mg./ml.), and 2 μl. were used for analyses. Peak areas and retention times were obtained with a Hewlett/Packard Model 3370 B integrator.

The test system of data set [7] is M. rhodochrus. Kind of data set: Minimum inhibitory concentration, agar streak test on TGY agar (M. rhodochrus). It counts as cell-based. Conditions: NRRL B-2141, 37° C., 24 and 48 hr., read-out: Antimicrobial agent MIC. The procedure: as §1
For data set [8], the system named is Neisseria perflava. The data set can be described thus: Minimum inhibitory concentration, agar streak test on TGY agar (N. perflava). The class given is cell-based. To be noted: 37° C., 24 and 48 hr., read-out: Antimicrobial agent MIC. The procedure:
as §1

In data set [9] the test system is fungi. The data set can be described thus: Minimum inhibitory concentration, agar streak test on TGY agar (fungi). The class given is cell-based. To be noted: tested fungi; room temperature; read-out: no inhibition at levels up to. How it is done: as §1
Data set [10] relates to M. smegmatis. The data set can be described thus: Minimum inhibitory concentration, agar streak test on TGY agar (M. smegmatis). It counts as cell-based. Conditions: Mycolicibacterium smegmatis, NRRLB612, NRRL B-612, 37° C., 24 and 48 hr., read-out: Antimicrobial agent MIC. How it is done:
as §1

Data set [11] can be described thus: physchem. It counts as physicochemical. How it is done:
Melting points (uncorrected) were determined with a Fisher-Johns apparatus. Infrared spectra were obtained on a Beckman Model 1R-8 spectrophotometer from films deposited on KRS-5 plates (Wilks, Inc.) or from solutions in a 1-mm. sodium chloride cell. Mass spectra were obtained on a Nuclide high-resolution instrument Model 12-90G. Ultraviolet spectra were recorded from a Beckman DG-G with the absolute ethanol solutions of antibiotic at 25 μg./ml. Elemental analysis was carried out in a Perkin-Elmer CHN analyzer 240. Solubilities were measured by the procedure of Shriner et al. [The Systematic Identification of Organic Compounds. A Laboratory Manual, John Wiley and Sons., Inc., New York].

The nature of data set [12]: in vivo. Conditions: mouse, in vivo, ip; intraperitoneal, propylene glycol, 25 g. Swiss-Webster female mice; read-out: intraperitoneal LD50 dose. More on the design: species or system Swiss-Webster female mice. How it is done: (§2) Animal toxicity. Chromatographically pure antibiotic was dissolved in warm propylene glycol and injected intraperitoneally into 25 g. Swiss-Webster female mice. The LD50 dose was calculated by Weil's procedure (supra) with the following notation: K = 3; n = 6; r = 0, 1, 6, 6; d = 0.3010; and Da = 25 mg./kg. body weight.

The test system of data set [13] is mice. The data set can be described thus: in vivo. To be noted: for r (Weil's procedure notation): n = 6, Da = 25 mg./kg. More on the design: species or system Swiss-Webster female mice. The procedure:
as §2

Data set [14] has as its system bacteria. Conditions: cited from earlier work.
The mark [15] stands for this setting: seven strains, read-out: concentration at which strains were inhibited.
The mark [16] stands for this setting: 100 or 200 mg./kg. intraperitoneal.

Values after ≈ are worked out from the molar mass of the structure shown. Like-named read-outs stand apart in the source and are kept apart here.

With `CC=CC1C=CC2CC(C)CCC2C1(C)C(O)=C1C(=O)C(CO)N(C)C1=O` (centres unmarked) [equisetin], the “comparison of minimum inhibitory concentrations with streptomycin and isoniazid” value in data set [1] was “a lower concentration of equisetin were required for the in vitro inhibition of the tested bacteria than was required for inhibition by streptomycin or isoniazid”. The MIC in [2] (NRRLB609, NRRL B-609, TGY agar, 37° C., 24 and 48 hr., read-out: Antimicrobial agent MIC) was 1 µg/mL (≈ 0.00268 mM); in data set [2] (NRRLB610, NRRL B-610, TGY agar, 37° C., 24 and 48 hr., read-out: Antimicrobial agent MIC), 1 µg/mL (≈ 0.00268 mM); in [2] (NRRLB4051, NRRL B-4051, TGY agar, 37° C., 24 and 48 hr., read-out: Antimicrobial agent MIC), 2 µg/mL (≈ 0.00535 mM); in data set [2] (two of three strains, read-out: concentration at which strains were inhibited), at most 1 µg/mL; in data set [3] (NRRLB543, NRRL B-543, TGY agar, 37° C., 24 and 48 hr., read-out: Antimicrobial agent MIC), 0.5 µg/mL (≈ 0.00134 mM); in data set [3] (NRRLB558, NRRL B-558, TGY agar, 37° C., 24 and 48 hr., read-out: Antimicrobial agent MIC), 0.5 µg/mL (≈ 0.00134 mM). In addition, the MIC in [3] (NRRLB644, NRRL B-644, TGY agar, 37° C., 24 and 48 hr., read-out: Antimicrobial agent MIC) is 0.5 µg/mL (≈ 0.00134 mM); in [3] (NRRLB765, NRRL B-765, TGY agar, 37° C., 24 and 48 hr., read-out: Antimicrobial agent MIC), 0.5 µg/mL (≈ 0.00134 mM); in data set [3] (NRRLB972, NRRL B-972, TGY agar, 37° C., 24 and 48 hr., read-out: Antimicrobial agent MIC), 0.5 µg/mL (≈ 0.00134 mM); in data set [3] (NRRLB1650, NRRL B-1650, TGY agar, 37° C., 24 and 48 hr., read-out: Antimicrobial agent MIC), 1 µg/mL (≈ 0.00268 mM); in [3] (NRRLB3284, NRRL B-3284, TGY agar, 37° C., 24 and 48 hr., read-out: Antimicrobial agent MIC) it was 1 µg/mL (≈ 0.00268 mM); in data set [3] (setting [15]), at most 1 µg/mL. For the same molecule, the MIC in data set [4] (NRRLB120, NRRL B-120, TGY agar, 37° C., 24 and 48 hr., read-out: Antimicrobial agent MIC) was 1 µg/mL (≈ 0.00268 mM); in data set [4] (NRRLB124, NRRL B-124, TGY agar, 37° C., 24 and 48 hr., read-out: Antimicrobial agent MIC), 1 µg/mL (≈ 0.00268 mM); in [4] (NRRLB313, NRRL B-313, TGY agar, 37° C., 24 and 48 hr., read-out: Antimicrobial agent MIC) it was 0.5 µg/mL (≈ 0.00134 mM); in [4] (NRRLB678, NRRL B-678, TGY agar, 37° C., 24 and 48 hr., read-out: Antimicrobial agent MIC) it was 1 µg/mL (≈ 0.00268 mM); in [4] (NRRLB1317, NRRL B-1317, TGY agar, 37° C., 24 and 48 hr., read-out: Antimicrobial agent MIC), 1 µg/mL (≈ 0.00268 mM); in data set [4] (NRRLB1318, NRRL B-1318, TGY agar, 37° C., 24 and 48 hr., read-out: Antimicrobial agent MIC) it was 1 µg/mL (≈ 0.00268 mM). Further, the MIC in [4] (NRRLB2746, NRRL B-2746, TGY agar, 37° C., 24 and 48 hr., read-out: Antimicrobial agent MIC) was 1 µg/mL (≈ 0.00268 mM); in [4] (setting [15]), at most 1 µg/mL; in data set [5], over 128 µg/mL; in data set [7], 0.5 µg/mL (≈ 0.00134 mM); in data set [8] (NRRLB1458, NRRL B-1458, TGY agar), 2 µg/mL (≈ 0.00535 mM); in data set [8] (NRRLB1788, NRRL B-1788, TGY agar) it was 2 µg/mL (≈ 0.00535 mM). Also, the MIC in data set [8] (NRRLB1789, NRRL B-1789, TGY agar) is 4 µg/mL (≈ 0.0107 mM); in data set [8] (NRRLB1790, NRRL B-1790, TGY agar), 1 µg/mL (≈ 0.00268 mM); in data set [8] (NRRLB1791, NRRL B-1791, TGY agar), 4 µg/mL (≈ 0.0107 mM); in [9], over 128 µg/mL; in data set [10] it was 8 µg/mL (≈ 0.0214 mM). For the same molecule, the “antibiotic converted to the degradation product” value in [6] (6-ft. columns, 220° C.) is reported as “almost half”. For the same molecule, the “degradation peak, share of the sample” value in data set [6] (180° C.) is reported as 3%; in data set [6] (190° C.), 6-8%. Besides, the solubility was over 660 mg/mL in data set [11] (acetone, organic solvent or mixture, read-out: solubility in acetone); over 330 mg/mL in [11] (ethanol, organic solvent or mixture, read-out: solubility in ethanol); over 220 mg/mL in data set [11] (methanol, organic solvent or mixture, read-out: solubility in methanol); under 0.8 mg/mL in [11] (organic solvent or mixture, hexane, insoluble, read-out: solubility in hexane); under 0.3 mg/mL in [11] (water, insoluble, read-out: solubility in water). In data set [12], the LD50 came to 63 mg/kg. In [13] (25- or 50-mg./kg. doses intraperitoneal, 4 wk. of observation), the “visible ill effects in surviving mice” value is on record as “no visible ill effects”. Moreover, in data set [13] (setting [16]), the condition of mice result is given as “lethargic”. Besides, in data set [13] (setting [16]), the “mortalities continued for, post-injection” value turned out to be 4 da. For the same molecule, in [13] (setting [16]), the time of death entry is recorded as “death did not occur before the second day after treatment”. In addition, the “r (Weil's procedure notation)” value worked out at 0 in [13] (first r, d = 0.3010 (25 mg./kg.)); 6 in data set [13] (fourth r, d = 0.3010 (200 mg./kg.)); 1 in data set [13] (second r, d = 0.3010 (50 mg./kg.)); 6 in [13] (third r, d = 0.3010 (100 mg./kg.)). The lethal action result in data set [13] (intraperitoneal, mice) was “Lethal action was slow”.
In the case of `C[C@H]1CCCC(=O)CCC/C=C/c2cc(O)cc(O)c2C(=O)O1` [zearalenone], the antibacterial properties entry in [14] is recorded as “either lack or only exhibit weak antibacterial properties”.
In the case of fusariogenin, in [14], the antibacterial properties entry is reported as “either lack or only exhibit weak antibacterial properties”.
